Values after ≈ are worked out from the molar mass of the structure shown. Active and inactive are the calls of the source. The calls are words filed in the database; no cut-off is given here.
Assays:
[1] = Solubility of the compound in phosphate buffered saline at pH 7.4; format: physicochemical
[2] = Binding affinity to methyl alpha-D-mannopyranoside at -129 ppm by Solid-state CP/MAS 113Cd NMR spectroscopy
[3] = Binding affinity to [13C6]-methyl alpha-D-mannopyranoside by 2-DDARR in presence of Ca2+ relative to TMS
[4] = Binding affinity to methyl alpha-D-mannopyranoside at -135 ppm by Solid-state CP/MAS 113Cd NMR spectroscopy

| solubility [1] | Activity [2] | Activity [3] | Activity [4] | Structure (SMILES) |
| --- | --- | --- | --- | --- |
| 260 µg/mL (≈ 303 µM) | – | – | – | CN[C@@H]1[C@H](O[C@@H]2OC[C@@H](O)[C@H](O)[C@H]2O)[C@@H](O)[C@H](O[C@H]2c3cc(C)c(C(=O)N[C@H](CO)C(=O)O)c(O)c3-c3c(cc4c(c3O)C(=O)c3cc(OC)cc(O)c3C4=O)[C@@H]2O)O[C@@H]1C |
| > 20000 µg/mL | Active | Active | – | COc1cc(O)c2c(c1)C(=O)c1c(cc3c(c1O)-c1c(cc(C)c(C(=O)N[C@H](CO)C(=O)O)c1O)[C@H](O[C@@H]1O[C@H](C)[C@H](N(C)C)[C@H](O[C@@H]4OC[C@@H](O)[C@H](O)[C@H]4O)[C@H]1O)[C@H]3O)C2=O |
| 20 µg/mL (≈ 23.8 µM) | – | Active | Active | CN[C@@H]1[C@H](O[C@@H]2OC[C@@H](O)[C@H](O)[C@H]2O)[C@@H](O)[C@H](O[C@H]2c3cc(C)c(C(=O)N[C@H](C)C(=O)O)c(O)c3-c3c(cc4c(c3O)C(=O)c3cc(OC)cc(O)c3C4=O)[C@@H]2O)O[C@@H]1C [PRADIMICIN A] |
